Laboratory results from patent US20150313928A1, “NEW APPLICATION OF CATALPOL” (SUZHOU YOUSEEN NEW PHARMACY DEVELOPMENT CO., LTD., priority 2012, published 2015).

How the values were obtained:
[1] = test system: mice in the hyperthyroidism model group; test: Measurement of mice weight change; type: in vivo, Kunming mice; details: for BW2 − BW1: body weight difference; for BW2 − BW1 / BW2: 20 days; for body weight increase: in words, compared with the model group, catalpol groups, methimazole 7.5 mg/kg; for BW2: post-treatment body weight, levothyroxine sodium 350 ug/kg s.c. daily; for BW1: pre-treatment body weight
Experimental: (§1) The successfully modeled mice are randomized into 5 groups (10 mice per group), that is, the hyperthyroidism model group, the catalpol low dosage group, the catalpol medium group, the catalpol high dosage group, and the methimazole group, plus the blank group (10 mice).
(§2) The catalpol low dosage group is administered 30mg/kg catalpol, the catalpol medium dosage group 60 mg/kg, the catalpol high group 90 mg/kg and the methimazole group 7.5 mg/kg methimazole, all by gastric infusion, while the blank group and the hyperthyroidism group are administered equal amount of distilled water, once per day, for 20 consecutive days. With the exception of the blank group, each mouse in each group continues to be administered 350 ug/kg levothyroxine sodium by means of subcutaneous injection each day.
A mouse is suspended of food without suspension of water for 12 hours starting at 8 o'clock one day prior to the first medication, and all the mice are taken of their body weight (BW) the next day, that is, the pre-treatment body weight (BW1); the mouse is suspended of food without suspension of water for 12 hours starting at 8 o'clock of the day of the last medication, its body weight (BW) is taken the next day, that is, the post-treatment body weight (BW2); the difference of the pre-treatment body weight and the post-treatment body weight is calculated to compare the change of the body weight of the mice among each group.

[2] = test system: mice in the hyperthyroidism model group; test: Observation of appearance and behavior of the mice; type: in vivo, Kunming mice; details: in words, as compared with the model group; daily observation
Experimental: (§3) The successfully modeled mice are randomized into 5 groups (10 mice per group), that is, the hyperthyroidism model group, the catalpol low dosage group, the catalpol medium group, the catalpol high dosage group, and the methimazole group, plus the blank group (10 mice). The catalpol low dosage group is administered 30mg/kg catalpol, the catalpol medium dosage group 60 mg/kg, the catalpol high group 90 mg/kg and the methimazole group 7.5 mg/kg methimazole, all by gastric infusion, while the blank group and the hyperthyroidism group are administered equal amount of distilled water, once per day, for 20 consecutive days. With the exception of the blank group, each mouse in each group continues to be administered 350 ug/kg levothyroxine sodium by means of subcutaneous injection each day. Animals were observed and recorded daily for their general status, including mental status, color and hair change, appearance and behavior. In addition, every two days, record is taken of their food intake.

[3] = test system: mice in the hyperthyroidism model group; test: Measurement of the level of thyroid hormone of serum (radioimmunoassay); type: in vivo, Kunming mice; details: for T3 level in the serum / FT3 level in the serum / FT4 level in the serum / T4 level in the serum: in words, compared with the model group; for T3 level in the serum: catalpol 30, 60, 90 mg/kg groups, methimazole 7.5 mg/kg, P<0.05; for FT3 level in the serum: catalpol low P<0.01, medium, high and methimazole P<0.05; for FT4 level in the serum: only catalpol low dosage significant (P<0.05); for T4 level in the serum: only methimazole difference significant (P<0.05); for FT3 / FT4 / T3 / T4: serum, 20 days
Experimental: as §1, §2
A mouse is suspended of food without suspension of water for 12 hours subsequent to the last medication, and blood is taken from its eye ball, put in centrifugation for 15 minutes at 3500 r/min, serum is pumped out for measurement of T3, T4, FT3, and FT4 by means of radioimmunoassay. For detailed operations, see the instruction manual.

[4] = test system: mice in the hyperthyroidism model group; test: Measurement of heart rate of the mice (electrocardiogram); type: in vivo, Kunming mice
Experimental: as §3, with “All the mice are suspended of food without suspension of water for 12 hours one day prior to the last medication” for “Animals were observed”, “heart rate is measured 3 hours later. Heart rate (HR) is calculated via the electrocardiogram, statistics is then conducted,” for “recorded daily for their general status, including mental status, color”, “differences are compared.” for “hair change, appearance and behavior. In addition, every two days, record is taken of their food intake.”

[5] = test system: mice in the hyperthyroidism model group; test: Measurement of heart indexes of the mice; type: in vivo, Kunming mice; design: HWI / LVWI: unit not given here; details: for HWI: heart weight index = HW/BW; for HWI / LVWI: 20 days; for heart weight index / left ventricular index: in words, compared with the model group; for heart weight index: catalpol medium and high dosage and methimazole significant; for left ventricular index: catalpol medium and high dosage significant (P<0.01); for LVWI: left ventricular weight index = LVW/BW
Experimental: as §1, §2
A mouse is sacrificed its heart instantly taken out for measurement of its heart weight (HW) and (left ventricular weight (LVW). Heart weight index (HWI=HW/BW) and left ventricular weight index (LVWI=LVW/BW) is calculated at conclusion the experiment.

[6] = test system: mice in the hyperthyroidism model group; test: Measurement of the oxygen consumption of the mice; type: in vivo, Kunming mice; details: for Decrease in oxygen content: measured two days prior to the last medication, 21% minus residual oxygen; for oxygen consumption: in words, compared with the model group, catalpol low (30 mg/kg) and high (90 mg/kg) dosage groups, methimazole 7.5 mg/kg
Experimental: as §1, §2
Oxygen consumption is measured two days prior to the last medication. The specific method is: take a model CY-3 digital oxygen meter and install therein an oxygen electrode. Connect, perform zero adjustment, and repeat until the instrument is stable for use. Take a 500 ml bottle, fix its outward connecting pipe with a rubber cover, seal with Vaseline. The rubber cover is connected via a tee, and a shift in the tee is selectable for connection or disconnection with outer space. A mouse is placed inside the bottle, and the mouth of the bottle is instantly covered with a wood plug to shut off air from the inner flask. The filtering flask is horizontally placed on the experiment table, and timing of 20 minutes After 20 minute, 10 ml air from the bottle was taken out by a injector and rapidly injected into a connector of the CY-3 type digital oxygen analyzer with the oxygen analyzer indicating oxygen content of the pumped in air. The data, when stable, is recorded as the residual oxygen value, then the oxygen consumption (20 min, 10 ml)=21%—residual oxygen value (%). (21% oxygen in air).

Kunming mice = test: Animal model preparation: injection of levothyroxine sodium (heart rate, serum T3/T4, heart weight index); type: in vivo; details: levothyroxine sodium 350 μg/kg subcutaneous injection, model group
Experimental: The animals are placed indoor for milieu adaptation 2 days prior to the experiment. 20 Kunming mice are randomly selected and put in the blank group, administered normal saline by subcutaneous injection, while the other mice are administered levothyroxine sodium 350 μg/kg by subcutaneous injection, with a daily dosage of 10 ml/kg, for 7 consecutive days.
After the third hour at the sixth day of medication, 10 mice (half male and half female) are randomly selected respectively from the blank group and the model group for measurement of heart rate. Under anesthesia, the mice are taken electrocardiogram for calculation of their heart rate. Statistical analysis is then conducted for comparison of differences.
In the case of substantial acceleration of its heart rate, a mouse is suspended of food without suspension of water for 12 hours starting at 8 o'clock of the last day (the seventh day) of medication. Each mouse in each group is taken of its weight at 8 o'clock the next morning. Blood is taken from its eye ball and subsequent to coagulation, put in centrifugation for 15 minutes at 3500 r/min, for measurement of T3 and T4 by means of radioimmunoas say. Each mouse is sacrificed and its heart is taken out for measurement of its heart weight and left ventricular weight. At conclusion of the experiment, the heart weight index and left ventricular weight index is calculated. [Heart weight index HWI=heart weight (HW)/body weight (BW); left ventricular weight index LVWI=left ventricular weight (LVW)/ body weight (BW)]
If the levels of the above indexes are substantially elevated, the model is regarded as successful.

[7] = catalpol 30 mg/kg gastric infusion once per day
[8] = catalpol 60 mg/kg gastric infusion once per day
[9] = catalpol 90 mg/kg gastric infusion once per day
[10] = in words, compared with the model group, catalpol 30, 60, 90 mg/kg groups, methimazole 7.5 mg/kg
[11] = methimazole 7.5 mg/kg gastric infusion once per day

Structure (SMILES): OC[C@H]1O[C@@H](O[C@@H]2OC=C[C@H]3[C@H](O)[C@@H]4O[C@]4(CO)[C@@H]23)[C@H](O)[C@@H](O)[C@@H]1O [Catalpol]
- BW2 − BW1 [1, 7]: 9.00 g
- BW2 − BW1 [1, 8]: 10.10 g
- BW2 − BW1 [1, 9]: 10.15 g
- body weight increase [1]: more body weight increase to some extent
- BW2 [1, 7]: 36.40 g
- BW2 [1, 8]: 37.80 g
- BW2 [1, 9]: 37.75 g
- BW1 ([1]; catalpol 30 mg/kg group): 27.40 g
- BW1 ([1]; catalpol 60 mg/kg group): 27.70 g
- BW1 ([1]; catalpol 90 mg/kg group): 27.60 g
- appearance and behavior of the mice [2]: quieter and have reduced symptoms of dysphoria, excitability, and drier and darker hair
- T3 level in the serum [3]: decreased T3 level in the serum to some extent
- FT3 level in the serum [3]: decreased FT3 level in the serum to some extent
- FT4 level in the serum [3]: decreased FT4 level in the serum to some extent
- T4 level in the serum [3]: decreased T4 level in the serum to some extent
- FT3 [3, 7]: 7.49 ng/mL
- FT4 [3, 7]: 22.87 ng/mL
- T3 [3, 7]: 3.84 ng/mL
- T4 [3, 7]: 181.02 ng/mL
- FT3 [3, 8]: 8.22 ng/mL
- FT4 [3, 8]: 23.77 ng/mL
- T3 [3, 8]: 3.52 ng/mL
- T4 [3, 8]: 179.90 ng/mL
- FT3 [3, 9]: 7.56 ng/mL
- FT4 [3, 9]: 24.02 ng/mL
- T3 [3, 9]: 3.50 ng/mL
- T4 [3, 9]: 178.50 ng/mL
- Heart rate ([4]; catalpol 30 mg/kg gastric infusion once per day, 20 days, levothyroxine sodium 350 ug/kg s.c. daily): 507.56 times/min
- Heart rate ([4]; catalpol 60 mg/kg gastric infusion once per day, 20 days, levothyroxine sodium 350 ug/kg s.c. daily): 538.75 times/min
- Heart rate ([4]; catalpol 90 mg/kg gastric infusion once per day, 20 days, levothyroxine sodium 350 ug/kg s.c. daily): 529.63 times/min
- Heart rate [4, 10]: decreased heart rate to some extent
- HWI [5, 7]: 5.912
- HWI [5, 8]: 5.650
- HWI [5, 9]: 5.58
- heart weight index [5]: decreased heart weight index to some extent
- left ventricular index [5]: decreased left ventricular index to some extent
- LVWI [5, 7]: 1.786
- LVWI [5, 8]: 1.625
- LVWI [5, 9]: 1.582
- Decrease in oxygen content ([6]; catalpol 30.0 mg/kg gastric infusion once per day): 8.88 %, 20 min
- Decrease in oxygen content ([6]; catalpol 60.0 mg/kg gastric infusion once per day): 9.03 %, 20 min
- Decrease in oxygen content [6, 9]: 8.81 %, 20 min
- oxygen consumption [6]: significantly decreased oxygen consumption

Structure (SMILES): N[C@@H](Cc1cc(I)c(Oc2cc(I)c(O)c(I)c2)c(I)c1)C(=O)O [levothyroxine sodium]
- HWI (Kunming mice; heart weight index = HW/BW, 7 day): 5.642 mg/g
- LVWI (Kunming mice; left ventricular weight index = LVW/BW, 7 day): 3.735 mg/g
- HR (Kunming mice; 6 day, mean ± S): 674.42 times/min
- T3 (Kunming mice; serum, 7 day, mean ± S): 2.89 ng/mL
- T4 (Kunming mice; serum, 7 day, mean ± S): 311.43 ng/mL

Structure (SMILES): Cn1cc[nH]c1=S [methimazole, reference compound]
- BW2 − BW1 [1, 11]: 9.00 g
- body weight increase [1]: more body weight increase to some extent
- BW2 [1, 11]: 36.30 g
- BW1 ([1]; methimazole 7.5 mg/kg group): 27.30 g
- T3 level in the serum [3]: decreased T3 level in the serum to some extent
- FT3 level in the serum [3]: decreased FT3 level in the serum to some extent
- FT4 level in the serum [3]: decreased FT4 level in the serum to some extent
- T4 level in the serum [3]: decreased T4 level in the serum to some extent
- FT3 [3, 11]: 8.80 ng/mL
- FT4 [3, 11]: 26.85 ng/mL
- T3 [3, 11]: 3.64 ng/mL
- T4 [3, 11]: 145.61 ng/mL
- Heart rate [4, 10]: decreased heart rate to some extent
- Heart rate ([4]; methimazole 7.5 mg/kg gastric infusion once per day, 20 days, levothyroxine sodium 350 ug/kg s.c. daily): 474.02 times/min
- HWI [5, 11]: 5.784
- heart weight index [5]: decreased heart weight index to some extent
- left ventricular index [5]: decreased left ventricular index to some extent
- LVWI [5, 11]: 1.560
- oxygen consumption [6]: significantly decreased oxygen consumption
- Decrease in oxygen content [6, 11]: 8.53 %, 20 min
